The source of these data is article PMC12246139 (Scientific Reports, 2025).

Several values for one entry are separate records, joined by “and”; a condition that tells them apart may be missing. Equal values may be shown once. Read-outs that look alike come from different tables or passages of the source.

The target of assay [1] is T1, KRAS(G12C) (Homo sapiens, UniProt P01116, G12C). Briefly: biochemical. The following applies: 10 nM KRAS(G12C), 5 nM SOScat, 15 min preincubation; read-out: Nucleotide exchange IC50.
Assay [2] concerns the target T2, KRAS(WT) (Homo sapiens, UniProt P01116). The assay is described as follows: biochemical. The following applies: 10 nM KRAS(WT), 5 nM SOScat, 15 min preincubation; read-out: Nucleotide exchange IC50. The method, then:
Our results imply that both inhibitors are highly dependent on their covalent interaction to G12C for efficient and potent RAS inhibition.
(§1) Nucleotide exchange assays using the QRET principle[63]–[65],[68] were performed in assay buffer containing 20 mM HEPES (pH 7.5) 1 mM MgCl2, 10 mM NaCl, 0.01% (v/v) Triton X-100. […] Thereafter, 6 μL of detection solution (3.5 μM MT2 and 10 nM Eu^3+-GTP) was added and reaction was initiated with 5 nM SOS^cat added in 3 μL volume. TRL-signals were monitored using Tecan Spark 20 M from Tecan Life Sciences (Männedorf, Switzerland) by using 340 and 620 nm excitation and emission wavelengths and 800 and 400 μs delay and decay time, respectively. All concentrations are informed in a final 15 μL reaction volume in white 384-well low volume plates (Corning, USA). IC50 values were obtained using standard sigmoidal fitting functions from Origin 2016 software (Origin Lab, Northampton, MA).
with 10 nM KRAS(WT) and 5 nM SOScat, utilizing Eu3+-GTP (10 nM) TRL-signal protection upon
KRAS binding according to QRET principle.
(§2) (1 picture or pasted object on this page, not shown here)

Assay [3] deals with T1, KRAS(G12C). The assay is described as follows: FRET-Probe thermal stability assay. Format: binding. The method, then: (§3) In these assays, no external protein (SOS^cat) is used and only KRAS and inhibitors are present. First, we conducted a chemical stability assay by utilizing the FRET-Probe technique. In this system, time dependent KRAS (20 nM) denaturation is monitored in 1 M urea solution after KRAS preincubation with varying inhibitor concentration. […] In this assay, we observed an exceptionally high stability increase with both inhibitors (Fig. 5d; Fig. S17).
(§4) FRET-Probe thermal stability assays[69] were conducted in triplicates in an assay buffer containing 10 mM HEPES (pH 7.5), 10 mM NaCl, 0.5 mM MgCl2, and 0.01% (v/v) Brij-30. Assay was also performed in an assay buffer without MgCl2. […] Thereafter, 8 μL of the 1 × FRET-Probe was added, and signals were monitored using step-by-step protocol by heating from 34–96 °C using 2 °C steps and heating the sample 1.5 min at each step prior measurement using 340 and 665 nm excitation and emission wavelengths and 50 and 200 μs delay and decay time, respectively. Thermal heating was performed with a PTC-100 Programmable Thermal Controller (MJ Research, Inc., Watertown, MA). All concentrations are informed in a final 20 μL reaction volume in white 96-well PCR-plate (BioRad, USA). Tm values were obtained using standard sigmoidal fitting functions from Origin 2016 software. […]
heating with the FRET-Probe. KRAS(G12C) was preincubated 15 min prior the thermal ramping, in […]
which the TR-FRET signals from the triplicate reactions were monitored for every 2 °C, up to 96 °C.
Normalized thermal curves with or without MgCl2 (0.2 mM) are shown in A and C, and the same data […]
is presented as TR-FRET signals in B and D, respectively.
as §2

Assay [4] addresses T3, KRAS(G12C/H95L) (Homo sapiens, UniProt P01116, G12C/H95L). The assay is described as follows: biochemical. The class given is binding. The following applies: 20 nM KRAS(G12C/H95L), 1 M urea, 120 min at room temperature; read-out: Chemical stability IC50. The method, then: (§5) Nucleotide exchange inhibition was monitored in an assay with 10 nM KRAS and 5 nM SOS^cat, utilizing Eu^3+-GTP TRL-signal protection upon KRAS binding according to QRET principle. […] (d) Overview of the assay results presented in (a–c) and Figs. S17, S19–S20.
as §3
(§6) FRET-Probe chemical stability assays[69] were performed in triplicates in an assay buffer containing 10 mM HEPES (pH 7.5), 10 mM NaCl, and 0.01% (v/v) Brij-30 (with or without 0.2 mM MgCl2) and destabilizing detection buffer with 10 mM HEPES (pH 7.5), 1 M urea, and 0.01% (v/v) Brij-30. […] Thereafter, 16 μL of the 1 × FRET-Probe was added in destabilizing detection buffer and TR-FRET signal was monitored multiple times during 120 min incubation (parameters as in thermal stability assay). All concentrations are informed in a final 20 μL reaction volume in white 384-well low volume plates (Corning, USA). IC50 values were obtained by blotting the signals obtained with different inhibitor concentrations at the selected time point against the inhibitor concentration and using standard sigmoidal fitting functions from Origin 2016 software.

The target of assay [5] is T1, KRAS(G12C). The assay is described as follows: biochemical. The class given is binding. The following applies: 20 nM KRAS(G12C), 1 M urea, 120 min at room temperature; read-out: Chemical stability IC50. The procedure:
as §5, §3, §6

The target in assay [6] is T4, KRAS(G12C/Y96D) (Homo sapiens, UniProt P01116, G12C/Y96D). The assay is described as follows: biochemical. The class given is binding. The following applies: 20 nM KRAS(G12C/Y96D), 1 M urea, 120 min at room temperature; read-out: Chemical stability IC50. The method, then:
as §5, §3, §6

Assay [7] has as its target T3, KRAS(G12C/H95L). The assay is described as follows: biochemical. The following applies: 10 nM KRAS(G12C/H95L), 5 nM SOScat, 15 min preincubation; read-out: Nucleotide exchange IC50.
Source text: (§7) First, we performed a traditional nucleotide exchange assay using a single-label quenching resonance energy transfer (QRET) principle[63]–[65] and non-labeled full-length KRAS(G12C), (G12C/H95L), and (G12C/Y96D). The selection of the two double mutants was based on the observed interactions in the MD simulations (Figs. 2, 3), and the fact that acquired resistance with SII-P inhibitors is associated with these mutations, as clinically observed for sotorasib and adagrasib[66]–[68].
as §5, §1

Assay [8] has as its target T4, KRAS(G12C/Y96D). The assay is described as follows: biochemical. The following applies: 10 nM KRAS(G12C/Y96D), 5 nM SOScat, 15 min preincubation; read-out: Nucleotide exchange IC50.
Source text: as §7, §5, §1

Assay [9] deals with T2, KRAS(WT). The assay is described as follows: FRET-Probe thermal stability assay. The class given is binding. On the set-up: full-length KRAS(G12C), KRAS(G12C/H95L), KRAS(G12C/Y96D) and KRAS(WT); host or cells: E. coli. The procedure:
as §4
TR-FRET signals from the triplicate reactions were monitored for every 2 °C, up to 96 °C. Normalized thermal curves with or without MgCl2 (0.2 mM) are shown in A and C, and the same data is presented as TR-FRET signals in B and D, respectively.
as §2

For the next assay, the target named is HRAS(G12C) (Homo sapiens, UniProt P01112, G12C). Briefly: biochemical. The following applies: 10 nM HRAS(G12C), 5 nM SOScat, 15 min preincubation; read-out: Nucleotide exchange IC50. The method, then:
as §5
(§8) SII-P inhibitor activities can differ among RAS isoforms (KRAS/HRAS/NRAS). These isoforms differ only in position 95 in the SII-P (Fig. S18).
as §1

A further assay has as its target NRAS(G12C) (Homo sapiens, UniProt P01111, G12C). The assay is described as follows: biochemical. The following applies: 10 nM NRAS(G12C), 5 nM SOScat, 15 min preincubation; read-out: Nucleotide exchange IC50. The method, then:
as §5, §8, §1

NRAS(G12C), sequence (P01111 1-169 G12C): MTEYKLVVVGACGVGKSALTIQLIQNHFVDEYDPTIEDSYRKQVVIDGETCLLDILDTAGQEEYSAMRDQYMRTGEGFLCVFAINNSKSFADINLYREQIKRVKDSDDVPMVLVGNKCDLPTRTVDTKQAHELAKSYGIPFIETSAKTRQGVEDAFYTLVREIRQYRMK
HRAS(G12C), sequence (P01112 1-169 G12C): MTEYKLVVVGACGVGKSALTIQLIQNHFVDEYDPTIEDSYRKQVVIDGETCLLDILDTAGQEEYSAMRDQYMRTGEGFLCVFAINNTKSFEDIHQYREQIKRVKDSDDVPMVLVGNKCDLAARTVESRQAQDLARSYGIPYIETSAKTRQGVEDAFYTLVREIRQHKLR

`C=CC(=O)N1CCN2C(=O)c3cc(F)c(-c4ccc(F)c5sc(N)c(C#N)c45)c(Cl)c3OCC[C@H]2C1` [LY3537982, olomorasib]: the IC50 on KRAS(G12C) [1] is 0.956 ± 0.3 nM; on KRAS(WT) [2] it was 343 ± 23 nM; on KRAS(G12C/H95L) [4], 0.345 nM and 0.35 nM; at KRAS(G12C) [5], 0.368 nM and 0.37 nM; on KRAS(G12C/Y96D) [6] it was 1.6 ± 0.1 nM; on KRAS(G12C/H95L) [7], 0.121 nM and 0.12 nM. Moreover, the IC50 was found to be 2.8 ± 0.8 nM on KRAS(G12C/Y96D) [8], 0.48 ± 0.042 nM on HRAS(G12C) and 0.16 ± 0.013 nM on NRAS(G12C). The thermal shift (ΔTm) at 0.05 µM on KRAS(G12C) [3] (read-out: Thermal stability ΔTm, 20 nM KRAS(G12C), 50 nM inhibitor, first value (footnote c), one of the with / without Mg2+ conditions) amounted to 20.5 °C; on KRAS(G12C) [3] (read-out: Thermal stability ΔTm, 20 nM KRAS(G12C), 50 nM inhibitor, second value (footnote d), the other of the with / without Mg2+ conditions), 30.4 °C. Moreover, the ΔTm at 10 µM at KRAS(WT) [9] (read-out: Thermal stability ΔTm, 20 nM KRAS(WT), 10,000 nM inhibitor, first value (footnote f), one of the with / without Mg2+ conditions) came out at 5.1 °C; at KRAS(WT) [9] (read-out: Thermal stability ΔTm, 20 nM KRAS(WT), 10,000 nM inhibitor, second value (footnote g), the other of the with / without Mg2+ conditions), 4.9 °C.

For `C=CC(=O)N1CCN(c2nc(OC[C@@H]3CCCN3C)nc3c(F)c(-c4nc(N)cc(C)c4C(F)(F)F)c(Cl)cc23)[C@@H](C)C1` [GDC-6036, divarasib], the IC50 came out at 291 ± 23 nM on KRAS(WT) [2]; 15 ± 3.4 nM on KRAS(G12C/H95L) [4]; 5.9 ± 0.9 nM on KRAS(G12C) [5]; 106 ± 6 nM at KRAS(G12C/Y96D) [6]; 12 ± 3 nM on KRAS(G12C/H95L) [7]; 229 ± 59 nM on KRAS(G12C/Y96D) [8]. Further, the results for the IC50 at HRAS(G12C) and on NRAS(G12C) were 32.9 ± 2.2 nM and 29.8 ± 2.35 nM, respectively. Also, the ΔTm at 0.05 µM on KRAS(G12C) [3] (20 nM KRAS(G12C), 50 nM inhibitor, first value (footnote c), one of the with / without Mg2+ conditions, read-out: Thermal stability ΔTm) came out at 23.7 °C; at KRAS(G12C) [3] (20 nM KRAS(G12C), 50 nM inhibitor, second value (footnote d), the other of the with / without Mg2+ conditions, read-out: Thermal stability ΔTm) it was 32.5 °C. Besides, the ΔTm at 10 µM on KRAS(WT) [9] (20 nM KRAS(WT), 10,000 nM inhibitor, first value (footnote f), one of the with / without Mg2+ conditions, read-out: Thermal stability ΔTm) came out at 5.2 °C; on KRAS(WT) [9] (20 nM KRAS(WT), 10,000 nM inhibitor, second value (footnote g), the other of the with / without Mg2+ conditions, read-out: Thermal stability ΔTm), 5.5 °C.

One may read the IC50 as the concentration needed to halve the response being measured. As usually defined, the ΔTm is the shift of the melting midpoint relative to a reference.
